Assay results: patent US10201523B2, “Use of wilforlide A for overcoming chemotherapy resistance” (WESTERN UNIVERSITY OF HEALTH SCIENCES, priority 2013, dated 2019)
pIC50: −log10 of the molar value. Where “and” joins values, the source holds several entries; their conditions need not be identical. Equal values may be shown once.

Experiments:
[1] = test system: SkBr3-TxR; experiment: SRB cell viability assay, lapatinib with/without wilforlide A pretreatment; type: cell-based; conditions: SkBr3-TxR; for A at 565 nm: background = 0.051
[2] = test system: Bt474-TxR; experiment: as above; type: cell-based; conditions: Bt474-TxR, wilforlide A 2.5 μg/ml pre-Tx; for A at 565 nm: background = 0.045
[3] = no wilforlide A pre-Tx, lapatinib 0.01 μM 72 h
[4] = no wilforlide A pre-Tx, lapatinib 0.2 μM 72 h
[5] = no wilforlide A pre-Tx, lapatinib 0.67 μM 72 h
[6] = no wilforlide A pre-Tx, lapatinib 2.0 μM 72 h
[7] = no wilforlide A pre-Tx, lapatinib 6.7 μM 72 h
[8] = no wilforlide A pre-Tx, lapatinib 20 μM 72 h
[9] = wilforlide A 2.5 μg/ml pre-Tx, lapatinib 0.01 μM 72 h
[10] = wilforlide A 2.5 μg/ml pre-Tx, lapatinib 0.067 μM 72 h
[11] = wilforlide A 2.5 μg/ml pre-Tx, lapatinib 0.2 μM 72 h
[12] = wilforlide A 2.5 μg/ml pre-Tx, lapatinib 0.67 μM 72 h
[13] = wilforlide A 2.5 μg/ml pre-Tx, lapatinib 2.0 μM 72 h
[14] = wilforlide A 2.5 μg/ml pre-Tx, lapatinib 6.7 μM 72 h

## CS(=O)(=O)CCNCc1ccc(-c2ccc3ncnc(Nc4ccc(OCc5cccc(F)c5)c(Cl)c4)c3c2)o1 [lapatinib]
[1]; 72 h, no wilforlide A pre-Tx, lapatinib 0.001 μM 72 h
  viability at 0.001 µM: 100%
[1]; 72 h, no wilforlide A pre-Tx, lapatinib 0.01 μM 72 h
  viability at 0.01 µM: 101%
[1]; 72 h, no wilforlide A pre-Tx, lapatinib 0.067 μM 72 h
  viability at 0.067 µM: 96.6%
[1]; 72 h, no wilforlide A pre-Tx, lapatinib 0.2 μM 72 h
  viability at 0.2 µM: 90%
[1]; 72 h, no wilforlide A pre-Tx, lapatinib 0.67 μM 72 h
  viability at 0.67 µM: 85.6%
[1]; 72 h, no wilforlide A pre-Tx, lapatinib 2.0 μM 72 h
  viability at 2 µM: 73.5%
[1]; 72 h, no wilforlide A pre-Tx, lapatinib 6.7 μM 72 h
  viability at 6.7 µM: 61.6%
[1]; 72 h, no wilforlide A pre-Tx, lapatinib 20 μM 72 h
  viability at 20 µM: 42.6%
[1]; 72 h, wilforlide A 2.5 μg/ml pre-Tx, lapatinib 0.001 μM 72 h
  viability at 0.001 µM: 100%
[1]; 72 h, wilforlide A 2.5 μg/ml pre-Tx, lapatinib 0.01 μM 72 h
  viability at 0.01 µM: 89%
[1]; 72 h, wilforlide A 2.5 μg/ml pre-Tx, lapatinib 0.067 μM 72 h
  viability at 0.067 µM: 77.2%
[1]; 72 h, wilforlide A 2.5 μg/ml pre-Tx, lapatinib 0.2 μM 72 h
  viability at 0.2 µM: 69.1%
[1]; 72 h, wilforlide A 2.5 μg/ml pre-Tx, lapatinib 0.67 μM 72 h
  viability at 0.67 µM: 59.5%
[1]; 72 h, wilforlide A 2.5 μg/ml pre-Tx, lapatinib 6.7 μM 72 h
  viability at 6.7 µM: 40.7%
[1]; 72 h, wilforlide A 2.5 μg/ml pre-Tx, lapatinib 20 μM 72 h
  viability at 20 µM: 31.1%
[1]; no wilforlide A pre-Tx, lapatinib 0.001 μM 72 h
  mean A: 2.302
[1]; [3]
  mean A: 2.322
  A at 565 nm: 2.458
[1]; no wilforlide A pre-Tx, lapatinib 0.067 μM 72 h
  mean A: 2.222
[1]; [4]
  mean A: 2.071
  A at 565 nm: 1.945
[1]; [5]
  mean A: 1.970
  A at 565 nm: 1.871 and 1.990 and 2.048
[1]; [6]
  mean A: 1.692
  A at 565 nm: 1.609 and 1.759 and 1.708
[1]; [7]
  mean A: 1.418
  A at 565 nm: 1.426 and 1.445 and 1.384
[1]; [8]
  mean A: 0.980
  A at 565 nm: 0.958 and 1.024 and 0.957
[1]; wilforlide A 2.5 μg/ml pre-Tx, lapatinib 0.001 μM 72 h
  mean A: 2.265
[1]; [9]
  mean A: 2.016
  A at 565 nm: 1.817 and 1.976
[1]; [10]
  mean A: 1.748
  A at 565 nm: 1.344 and 1.909 and 1.992
[1]; [11]
  mean A: 1.564
  A at 565 nm: 1.299 and 1.540 and 1.854
[1]; [12]
  mean A: 1.347
  A at 565 nm: 1.127 and 1.398 and 1.517
[1]; [13]
  mean A: 1.140
  A at 565 nm: 0.987 and 1.095 and 1.339
[1]; [14]
  mean A: 0.922
  A at 565 nm: 0.794 and 0.932 and 1.040
[1]; wilforlide A 2.5 μg/ml pre-Tx, lapatinib 20 μM 72 h
  A at 565 nm: 0.731 and 0.673 and 0.706
[1]; wilforlide A 2.5 μg/ml pre-Tx, read-out: Drug IC50 after wilforlide A pre-Tx
  pIC50: 6.05
[1]; chemosensitization effect, wilforlide A 2.5 μg/ml pre-Tx
  CE: 13
[2]; 72 h, lapatinib 0.001 μM 72 h
  viability at 0.001 µM: 100%
[2]; 72 h, lapatinib 0.01 μM 72 h
  viability at 0.01 µM: 103%
[2]; 72 h, lapatinib 0.067 μM 72 h
  viability at 0.067 µM: 96.1%
[2]; 72 h, lapatinib 0.2 μM 72 h
  viability at 0.2 µM: 84.8%
[2]; 72 h, lapatinib 0.67 μM 72 h
  viability at 0.67 µM: 76%
[2]; 72 h, lapatinib 2.0 μM 72 h
  viability at 2 µM: 67.4%
[2]; 72 h, lapatinib 6.7 μM 72 h
  viability at 6.7 µM: 70.2%
[2]; 72 h, lapatinib 20 μM 72 h
  viability at 20 µM: 60.9%
[2]; lapatinib 0.001 μM 72 h
  mean A: 1.260
  A at 565 nm: 1.301 and 1.370
[2]; lapatinib 0.01 μM 72 h
  mean A: 1.293
  A at 565 nm: 1.309 and 1.368
[2]; lapatinib 0.067 μM 72 h
  A at 565 nm: 1.297
[2]; lapatinib 0.67 μM 72 h
  mean A: 0.957
